Experimental data reported in US7074811B2 (SmithKline Beecham p.l.c., priority 2000, dated 2006).

Assay: Hygroscopicity of the Hydrochloride (weight gain at 75% relative humidity)
Format: physicochemical
Conditions: 43 days

hygroscopicity classification (75% relative humidity at 21° C.): non-hygroscopic (<2%)
percentage weight gain (75% relative humidity atmosphere at 21° C., constant weight attained, sample of Example 1): 0.4%
Compound: CN(CCOc1ccc(CC2SC(=O)NC2=O)cc1)c1ccccn1.Cl (centres unmarked) [Hydrochloride, 5-[4-[2-(N-methyl-N-(2-pyridyl)amino)ethoxy]benzyl]thiazolidine-2,4-dione hydrochloride]
